Where no end group is shown, it is not given here.

Series [1] addresses H-2D^d/TAPBPR complex (Mus musculus, UniProt P01900).
Series [2] concerns the target H-2D^d (Mus musculus, UniProt P01900). As to conditions: cited from earlier work.
Series [3] concerns the target H-2L^d/TAPBPR complex (Mus musculus, UniProt P01897). In words: SEC TAPBPR binding with LC-MS peptide occupancy. As to conditions: QL9 with 10 mM Gly-Phe dipeptide.
Series [4] is described as follows: Nano differential scanning fluorimetry (nanoDSF). It counts as physicochemical. To be noted: FIG. 18B. How it is done: 10 uL of each sample was loaded on the Prometheus NT.48 instrument (NanoTemper) using the high sensitivity capillaries. NanoDSF measurements are performed using a temperature ramp rate of 1° C./min from 25° C. to 95° C. and an LED intensity of 20%. Data is analyzed using the PR Control software (NanoTemper). Melting temperatures (Tm values) correspond to the inflection points of the first derivative of the 330/350 nm fluorescence ratio. Experiments were performed in duplicates and the shaded areas (FIG. 18B) are representative of the error.
In general terms: In DSF a fluorescence change marks the thermal transition of the protein.

Chain of H-2L^d/TAPBPR complex (P01897 25-309 limits assumed): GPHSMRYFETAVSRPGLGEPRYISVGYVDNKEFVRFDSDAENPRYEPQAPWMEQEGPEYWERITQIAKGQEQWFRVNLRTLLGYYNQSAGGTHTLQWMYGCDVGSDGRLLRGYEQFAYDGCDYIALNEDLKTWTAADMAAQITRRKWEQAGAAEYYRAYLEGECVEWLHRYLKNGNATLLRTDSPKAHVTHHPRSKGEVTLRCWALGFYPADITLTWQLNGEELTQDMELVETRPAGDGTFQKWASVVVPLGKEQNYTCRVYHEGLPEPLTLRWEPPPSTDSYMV
Chain of H-2L^d/TAPBPR complex (P61769 21-119 partner): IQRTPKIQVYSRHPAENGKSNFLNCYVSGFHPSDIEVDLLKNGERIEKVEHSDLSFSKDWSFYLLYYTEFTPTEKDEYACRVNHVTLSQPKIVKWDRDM
Chain of H-2D^d/TAPBPR complex (P01900 25-311): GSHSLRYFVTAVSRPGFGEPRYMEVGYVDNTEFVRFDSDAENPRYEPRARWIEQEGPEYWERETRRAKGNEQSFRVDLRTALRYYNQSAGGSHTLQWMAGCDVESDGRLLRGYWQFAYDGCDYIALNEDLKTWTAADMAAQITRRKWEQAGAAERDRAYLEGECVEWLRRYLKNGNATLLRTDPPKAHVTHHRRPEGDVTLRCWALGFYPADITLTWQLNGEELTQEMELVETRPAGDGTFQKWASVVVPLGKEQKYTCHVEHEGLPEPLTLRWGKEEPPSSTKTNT
Chain of H-2D^d/TAPBPR complex (P61769 21-119, further chain): as the sequence (P61769 21-119 partner) above
Chain of H-2D^d (P61769 21-119): as the sequence (P61769 21-119 partner) above
Chain of H-2D^d (P01900 25-311): as the sequence (P01900 25-311) above

In the case of GPGRAFVTI [gP18-I10], in series [1], the “peptide occupancy in the presence of TAPBPR” value (shortened to “peptide occupancy”) is “dissociates in the presence of TAPBPR”. Moreover, the “increase in the peptide off-rate relative to full-length P18-I10” value in series [2] is given as 100 fold. As to QLSPFPFDL [QL9, reference compound], in series [3], the “peptide occupancy” value is given as “could obtain empty H-2L^d:TAPBPR complexes”.

As to “TAPBPR: TAPasin Binding Protein Related chaperone, recombinant luminal domain”, the “Tm (nanoDSF inflection point)” value in series [4] is 52.5 °C. In the case of “_PNVNIHNF (not fully specified (N-terminus); printed as _PNVNIHNF) [gp29]”, the “peptide occupancy” value in series [3] is “remained bound”.

These data come from patent US12630606B2, “Peptide deficient-MHC class I/chaperone compositions and methods” (priority 2018, dated 2026).
